# Patent publication US7420043B2, “Reagents for detecting efavirenz” (priority 2003, dated 2008)
# Read-outs that look alike come from different tables or passages of the source.
# Tests used:
# [1] = test system: monoclonal antibody EFA 97.1; experiment: Cross-reactivity assay (competitive ELISA, ED50 ratio); type: binding, mouse; conditions: ED50 of efavirenz divided by ED50 of the drug, times 100
# Description: Supernatants were subjected to serial dilutions and retested in the ELISA screen above omitting the competitive inhibition with free drug. The dilution providing for approximately a 50% reduction from the maximum OD was chosen for proceeding to cross-reactivity testing. This comprised repeating the preceding assay with the antibody at the chosen dilution and in the presence of varying concentrations of different drugs. FIG. 8 presents the results of such a determination.
# [2] = cited from earlier work
# [3] = Physician's Desk Reference; cited from earlier work
# HIV = conditions: cited from earlier work
SMILES,% Cross-reactivity [1],further results
Cc1c(O)cccc1C(=O)N[C@@H](CSc1ccccc1)[C@H](O)CN1C[C@H]2CCCC[C@H]2C[C@H]1C(=O)NC(C)(C)C [nelfinavir],0%,
Cc1ccnc2c1NC(=O)c1cccnc1N2C1CC1 [nevirapine],0%,
O=C1Nc2ccc(Cl)cc2[C@@](C#CC2CC2)(C(F)(F)F)O1 [efavirenz],100%,"CNS toxicity frequency, high versus mid plasma levels ([2]; >4000 μg/L compared with 1000-4000 μg/L): approximately three times more frequent; patients discontinuing therapy because of severity or persistence of CNS side effects ([2]; patients receiving efavirenz): about 4%; patients reporting CNS side effects (dizziness, hallucinations, nightmares, insomnia) ([2]; patients receiving efavirenz): 20-40%; peak levels [3]: 12.9 µM; virological failure, % of patients (HIV; patients with low plasma levels of efavirenz, <1000 μg/L, 85 total patients): 50%; virological failure, % of patients (HIV; plasma levels 1000-4000 μg/L or more than 4000 μg/L): 18-22%"
CC(C)(C)NC(=O)[C@@H]1CN(Cc2cccnc2)CCN1C[C@@H](O)C[C@@H](Cc1ccccc1)C(=O)N[C@H]1c2ccccc2C[C@H]1O [indinavir],0%,
Cc1cn([C@H]2C[C@H](N=[N+]=[N-])[C@@H](CO)O2)c(=O)[nH]c1=O [3′-azido-3′-deoxythymidine],0%,
CC(C)c1nc(CN(C)C(=O)N[C@H](C(=O)N[C@@H](Cc2ccccc2)C[C@H](O)[C@H](Cc2ccccc2)NC(=O)OCc2cncs2)C(C)C)cs1 [ritonavir],0%,
CC(C)CN(C[C@@H](O)[C@H](Cc1ccccc1)NC(=O)O[C@H]1CCOC1)S(=O)(=O)c1ccc(N)cc1 [amprenavir],0%,
"Cc1cn([C@H]2C=C[C@@H](CO)O2)c(=O)[nH]c1=O [2′,3′-didehydro-3′-deoxythymidine]",0%,
Cc1cccc(C)c1OCC(=O)N[C@@H](Cc1ccccc1)[C@@H](O)C[C@H](Cc1ccccc1)NC(=O)[C@H](C(C)C)N1CCCNC1=O [lopinavir],0%,
CC(C)(C)NC(=O)[C@@H]1C[C@@H]2CCCC[C@@H]2CN1C[C@@H](O)[C@H](Cc1ccccc1)NC(=O)[C@H](CC(N)=O)NC(=O)c1ccc2ccccc2n1 [saquinavir],0%,
CC(C)Nc1cccnc1N1CCN(C(=O)c2cc3cc(NS(C)(=O)=O)ccc3[nH]2)CC1 [delaviridine],0%,
COC(=O)N[C@H](C(=O)N[C@@H](Cc1ccccc1)[C@@H](O)CN(Cc1ccc(-c2ccccn2)cc1)NC(=O)[C@@H](NC(=O)OC)C(C)(C)C)C(C)(C)C [atazanavir],0%,
